Patent US8163724B2, “Glucocorticosteroids, processes for their preparation, pharmaceutical compositions containing them and their use in therapy” (AstraZeneca AB, priority 2007, dated 2012)

Molecular target: T1, recombinant human GR (Homo sapiens, UniProt P04150)
T1 construct: purchased Panvera/Invitrogen P2812 (kit P2893)
T1 sequence (P04150 1-777): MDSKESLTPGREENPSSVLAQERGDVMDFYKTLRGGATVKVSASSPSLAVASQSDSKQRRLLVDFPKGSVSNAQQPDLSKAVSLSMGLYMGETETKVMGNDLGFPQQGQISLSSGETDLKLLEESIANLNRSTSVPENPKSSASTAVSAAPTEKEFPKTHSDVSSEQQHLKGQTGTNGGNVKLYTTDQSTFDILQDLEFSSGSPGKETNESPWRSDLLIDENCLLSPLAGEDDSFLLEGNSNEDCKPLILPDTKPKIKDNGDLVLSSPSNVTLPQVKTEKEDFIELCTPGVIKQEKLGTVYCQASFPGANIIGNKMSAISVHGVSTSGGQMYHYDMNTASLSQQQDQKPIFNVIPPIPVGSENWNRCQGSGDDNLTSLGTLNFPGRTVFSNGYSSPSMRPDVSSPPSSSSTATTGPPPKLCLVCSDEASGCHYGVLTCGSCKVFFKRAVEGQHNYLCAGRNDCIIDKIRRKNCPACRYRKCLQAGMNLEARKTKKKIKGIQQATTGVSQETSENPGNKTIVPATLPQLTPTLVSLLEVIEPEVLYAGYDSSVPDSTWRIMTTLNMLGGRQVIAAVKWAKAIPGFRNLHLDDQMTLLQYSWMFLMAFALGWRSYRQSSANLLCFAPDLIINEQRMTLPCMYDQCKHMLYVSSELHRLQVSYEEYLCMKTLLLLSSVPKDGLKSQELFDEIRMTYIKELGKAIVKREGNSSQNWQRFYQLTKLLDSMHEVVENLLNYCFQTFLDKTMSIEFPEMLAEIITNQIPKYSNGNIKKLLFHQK
Test: Human Glucocorticoid Receptor (GR) Assay (fluorescence polarization, Panvera/Invitrogen kit)
Assay type: binding
Conditions: fluorescence polarization; GS Red tracer; 2 hours at room temperature; 100% control 10 μM Dexamethasone; read-out: Inhibition of GR binding, IC50
How it was run: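 Fluorescence polarization competition with recombinant GR and GS Red fluorescent ligand plus stabilizing peptide and DTT in potassium phosphate/sodium molybdate/EDTA buffer with DMSO. Incubated 2 hours at room temperature in the dark; 0% control DMSO, 100% control 10 μM dexamethasone.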

| Structure (SMILES) | IC50 |
| --- | --- |
| CCC(=O)O[C@]1(C(=O)SCCOC(C)=O)CC[C@H]2[C@@H]3CCC4=Cc5c(cnn5-c5ccc(F)cc5)C[C@]4(C)[C@H]3[C@@H](O)C[C@@]21C [Example 95, (1R,3aS,3bS,10aR,10bS,11S,12aS)-1-({[2-(Acetyloxy)ethyl]sulfanyl}carbonyl)-7-(4-fluorophenyl)-11-hydroxy-10a,12a-dimethyl-1,2,3,3a,3b,4,5,7,10,10a,10b,11,12,12a-tetradecahydrocyclopenta[5,6]naphtho[1,2-f]indazol-1-yl propanoate] | 4.7 nM |
| CCC(=O)O[C@]1(C(=O)SCC#N)CC[C@H]2[C@@H]3CCC4=Cc5c(cnn5-c5ccc(F)nc5)C[C@]4(C)[C@H]3[C@@H](O)C[C@@]21C [Example 97, (1R,3aS,3bS,10aR,10bS,11S,12aS)-1-{[(Cyanomethyl)sulfanyl]carbonyl}-7-(6-fluoropyridin-3-yl)-11-hydroxy-10a,12a-dimethyl-1,2,3,3a,3b,4,5,7,10,10a,10b,11,12,12a-tetradecahydrocyclopenta[5,6]naphtho[1,2-f]indazol-1-yl propanoate] | 2.1 nM |
| CCC(=O)O[C@]1(C(=O)SCOC)CC[C@H]2[C@@H]3CCC4=Cc5c(cnn5-c5ccc(F)nc5)C[C@]4(C)[C@H]3[C@@H](O)C[C@@]21C [Example 98, (1R,3aS,3bS,10aR,10bS,11S,12aS)-7-(6-Fluoropyridin-3-yl)-11-hydroxy-1-{[(methoxymethyl)sulfanyl]carbonyl}-10a,12a-dimethyl-1,2,3,3a,3b,4,5,7,10,10a,10b,11,12,12a-tetradecahydrocyclopenta[5,6]naphtho[1,2-f]indazol-1-yl propanoate] | 3.1 nM |
| CCC(=O)O[C@]1(C(=O)SCF)CC[C@H]2[C@@H]3CCC4=Cc5c(cnn5-c5ccc(F)nc5)C[C@]4(C)[C@H]3[C@@H](O)C[C@@]21C [Example 99, (1R,3aS,3bS,10aR,10bS,11S,12aS)-1-{[(Fluoromethyl)sulfanyl]carbonyl}-7-(6-fluoropyridin-3-yl)-11-hydroxy-10a,12a-dimethyl-1,2,3,3a,3b,4,5,7,10,10a,10b,11,12,12a-tetradecahydrocyclopenta[5,6]naphtho[1,2-f]indazol-1-yl propanoate] | 2.1 nM |
| C[C@]12Cc3cnn(-c4cccc(C(=O)N5CCOCC5)c4)c3C=C1CC[C@@H]1[C@@H]2[C@@H](O)C[C@@]2(C)[C@H]1CC[C@]2(OC(=O)c1ccco1)C(=O)SCF [Example 100, (1R,3aS,3bS,10aR,10bS,11S,12aS)-1-{[(Fluoromethyl)thio]carbonyl}-11-hydroxy-10a,12a-dimethyl-7-[3-(morpholin-4-ylcarbonyl)phenyl]-1,2,3,3a,3b,4,5,7,10,10a,10b,11,12,12a-tetradecahydrocyclopenta[5,6]naphtho[1,2-f]indazol-1-yl furan-2-carboxylate] | 2.7 nM |
| C[C@]12Cc3cnn(-c4ccc(F)cc4F)c3C=C1CC[C@@H]1[C@@H]2[C@@H](O)C[C@@]2(C)[C@H]1CC[C@]2(OC(=O)c1ccco1)C(=O)SCC#N [Example 101, (1R,3aS,3bS,10aR,10bS,11S,12aS)-1-{[(Cyanomethyl)thio]carbonyl}-7-(2,4-difluorophenyl)-11-hydroxy-10a,12a-dimethyl-1,2,3,3a,3b,4,5,7,10,10a,10b,11,12,12a-tetradecahydrocyclopenta[5,6]naphtho[1,2-f]indazol-1-yl furan-2-carboxylate] | 29 nM |
| C[C@]12Cc3cnn(-c4cc(F)cc(F)c4)c3C=C1CC[C@@H]1[C@@H]2[C@@H](O)C[C@@]2(C)[C@H]1CC[C@]2(OC(=O)c1ccco1)C(=O)SCC#N [Example 102, (1R,3aS,3bS,10aR,10bS,11S,12aS)-1-{[(Cyanomethyl)thio]carbonyl}-7-(3,5-difluorophenyl)-11-hydroxy-10a,12a-dimethyl-1,2,3,3a,3b,4,5,7,10,10a,10b,11,12,12a-tetradecahydrocyclopenta[5,6]naphtho[1,2-f]indazol-1-yl furan-2-carboxylate] | 8.2 nM |
| C[C@]12Cc3cnn(-c4ccc(F)c(F)c4)c3C=C1CC[C@@H]1[C@@H]2[C@@H](O)C[C@@]2(C)[C@H]1CC[C@]2(OC(=O)c1ccco1)C(=O)SCC#N [Example 103, (1R,3aS,3bS,10aR,10bS,11S,12aS)-1-{[(Cyanomethyl)thio]carbonyl}-7-(3,4-difluorophenyl)-11-hydroxy-10a,12a-dimethyl-1,2,3,3a,3b,4,5,7,10,10a,10b,11,12,12a-tetradecahydrocyclopenta[5,6]naphtho[1,2-f]indazol-1-yl furan-2-carboxylate] | 6.4 nM |
| CCOC(=O)[C@@]1(O)CC[C@H]2[C@@H]3CCC4=Cc5c(cnn5-c5ccc(F)cc5)C[C@]4(C)[C@H]3[C@@H](O)C[C@@]21C [Example 104, Ethyl (1R,3aS,3bS,10aR,10bS,11S,12aS)-7-(4-fluorophenyl)-1,11-dihydroxy-10a,12a-dimethyl-1,2,3,3a,3b,4,5,7,10,10a,10b,11,12,12a-tetradecahydrocyclopenta[5,6]naphtho[1,2-f]indazole-1-carboxylate] | 4.2 nM |
| C[C@]12Cc3cnn(-c4ccccn4)c3C=C1CC[C@@H]1[C@@H]2[C@@H](O)C[C@@]2(C)[C@H]1CC[C@]2(OC(=O)c1ccco1)C(=O)OCC#N [Example 105, Cyanomethyl(1R,3aS,3bS,10aR,10bS,11S,12aS)-1-[(furan-2-ylcarbonyl)oxy]-11-hydroxy-10a,12a-dimethyl-7-pyridin-2-yl-1,2,3,3a,3b,4,5,7,10,10a,10b,11,12,12a-tetradecahydrocyclopenta[5,6]naphtho[1,2-f]indazole-1-carboxylate] | 6.1 nM |
| C[C@]12Cc3cnn(-c4ccc(S(C)(=O)=O)cc4)c3C=C1CC[C@@H]1[C@@H]2[C@@H](O)C[C@@]2(C)[C@H]1CC[C@]2(OC(=O)c1ccco1)C(=O)SCC#N [Example 106, (1R,3aS,3bS,10aR,10bS,11S,12aS)-1-{[(Cyanomethyl)sulfanyl]carbonyl}-11-hydroxy-10a,12a-dimethyl-7-[4-(methylsulfonyl)phenyl]-1,2,3,3a,3b,4,5,7,10,10a,10b,11,12,12a-tetradecahydrocyclopenta[5,6]naphtho[1,2-f]indazol-1-yl furan-2-carboxylate] | 160 nM |
| CN(C)C(=O)SC(=O)[C@@]1(OC(=O)c2ccco2)CC[C@H]2[C@@H]3CCC4=Cc5c(cnn5-c5cc(F)cc(F)c5)C[C@]4(C)[C@H]3[C@@H](O)C[C@@]21C [Example 107, (1R,3aS,3bS,10aR,10bS,11S,12aS)-7-(3,5-Difluorophenyl)-1-{[(dimethylcarbamoyl)sulfanyl]carbonyl}-11-hydroxy-10a,12a-dimethyl-1,2,3,3a,3b,4,5,7,10,10a,10b,11,12,12a-tetradecahydrocyclopenta[5,6]naphtho[1,2-f]indazol-1-yl furan-2-carboxylate] | 59 nM |
| COC(=O)c1cccc(-n2ncc3c2C=C2CC[C@@H]4[C@H]([C@@H](O)C[C@@]5(C)[C@H]4CC[C@]5(OC(=O)c4ccco4)C(=O)SCF)[C@@]2(C)C3)c1 [Example 108, (1R,3aS,3bS,10aR,10bS,11S,12aS)-1-{[(Fluoromethyl)sulfanyl]carbonyl}-11-hydroxy-7-[3-(methoxycarbonyl)phenyl]-10a,12a-dimethyl-1,2,3,3a,3b,4,5,7,10,10a,10b,11,12,12a-tetradecahydrocyclopenta[5,6]naphtho[1,2-f]indazol-1-yl furan-2-carboxylate] | 6.6 nM |
| CC(=O)O[C@]1(C(=O)SCC#N)CC[C@H]2[C@@H]3CCC4=Cc5c(cnn5-c5ccc(F)cc5)C[C@]4(C)[C@H]3[C@@H](O)C[C@@]21C [Example 109, (1R,3aS,3bS,10aR,10bS,11S,12aS)-1-{[(Cyanomethyl)sulfanyl]carbonyl}-7-(4-fluorophenyl)-11-hydroxy-10a,12a-dimethyl-1,2,3,3a,3b,4,5,7,10,10a,10b,11,12,12a-tetradecahydrocyclopenta[5,6]naphtho[1,2-f]indazol-1-yl acetate] | 4.1 nM |
| CC(=O)O[C@]1(C(=O)SCF)CC[C@H]2[C@@H]3CCC4=Cc5c(cnn5-c5ccc(F)cc5)C[C@]4(C)[C@H]3[C@@H](O)C[C@@]21C [Example 110, (1R,3aS,3bS,10aR,10bS,11S,12aS)-1-{[(Fluoromethyl)sulfanyl]carbonyl}-7-(4-fluorophenyl)-11-hydroxy-10a,12a-dimethyl-1,2,3,3a,3b,4,5,7,10,10a,10b,11,12,12a-tetradecahydrocyclopenta[5,6]naphtho[1,2-f]indazol-1-yl acetate] | 6.7 nM |
